Data reported in patent publication US10385022B2, “3-amino-pyridines as GPBAR1 agonists” (HOFFMANN-LA ROCHE INC., priority 2011, dated 2019).

What follows are compounds tested against human GPBAR1 receptor (Homo sapiens (Human), UniProt Q8TDU6) (assay: functional cAMP assay in CHO-dhfr(minus) cells expressing human GPBAR1 receptors). Conditions: CHO-dhfr(minus) cells expressing human GPBAR1, 30 min at 30° C.
Type: cell-based
Procedure, shortened: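 CHO-dhfr- cells were transfected with human GPBAR1, and a clone was chosen by cAMP response to lithocholic acid. EC50 values come from the cAMP read-out; specificity was checked in non-transfected CHO cells.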

Sequence of human GPBAR1 receptor (Q8TDU6 whole entry): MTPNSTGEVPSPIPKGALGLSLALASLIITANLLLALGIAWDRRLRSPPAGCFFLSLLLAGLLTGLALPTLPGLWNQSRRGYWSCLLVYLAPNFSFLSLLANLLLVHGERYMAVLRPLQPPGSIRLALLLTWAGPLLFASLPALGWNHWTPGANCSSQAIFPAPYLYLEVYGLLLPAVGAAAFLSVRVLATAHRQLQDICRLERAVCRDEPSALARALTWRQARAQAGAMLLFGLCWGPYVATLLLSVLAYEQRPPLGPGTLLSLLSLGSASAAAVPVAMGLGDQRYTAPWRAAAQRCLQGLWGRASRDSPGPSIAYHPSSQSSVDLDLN

SMILES | EC50 [nM]
COc1cc(F)ccc1-c1ccncc1N(C)C(=O)c1cc(C(F)(F)F)cc(S(=O)(=O)C2CN(S(C)(=O)=O)C2)c1 [Example 282, N-[4-(4-Fluoro-2-methoxy-phenyl)-pyridin-3-yl]-3-(1-methanesulfonyl-azetidine-3-sulfonyl)-N-methyl-5-trifluoromethyl-benzamide] | 69
Cc1ccccc1-c1ccncc1N(C)C(=O)c1cc(Cl)nc(Cl)c1 [Example 120, 2,6-Dichloro-N-methyl-N-(4-o-tolyl-pyridin-3-yl)-isonicotinamide] | 170
Cc1cc(C(=O)N(C)c2cnccc2-c2ccccc2C)cc(C(F)(F)F)c1 [Example 108, 3,N-Dimethyl-N-(4-o-tolyl-pyridin-3-yl)-5-trifluoromethyl-benzamide] | 70
COc1cccc(F)c1-c1ccncc1N(CC(F)(F)F)C(=O)c1cc(C(F)(F)F)cc(S(C)(=O)=O)c1 [Example 223, N-[4-(2-Fluoro-6-methoxy-phenyl)-pyridin-3-yl]-3-methanesulfonyl-N-(2,2,2-trifluoro-ethyl)-5-trifluoromethyl-benzamide] | 46
Cc1ccccc1-c1ccncc1N(C)C(=O)c1ccc(C(F)(F)F)c(Cl)c1 [Example 97, 3-Chloro-N-methyl-N-(4-o-tolyl-pyridin-3-yl)-4-trifluoromethyl-benzamide] | 721
CS(=O)(=O)c1cc(C(=O)N(CC(N)=O)c2cnccc2-c2ccccc2Cl)cc(C(F)(F)F)c1 [Example 296, N-Carbamoylmethyl-N-[4-(2-chloro-phenyl)-pyridin-3-yl]-3-methanesulfonyl-5-trifluoromethyl-benzamide] | 1340
Cc1cc(-c2cc(F)ccc2C)c(N(C)C(=O)c2cc(C(F)(F)F)cc(S(C)(=O)=O)c2)cn1 [Example 264, N-[4-(5-Fluoro-2-methyl-phenyl)-6-methyl-pyridin-3-yl]-3-methanesulfonyl-N-methyl-5-trifluoromethyl-benzamide] | 2410
COCCN(C(=O)c1cc(C(F)(F)F)cc(S(C)(=O)=O)c1)c1cnccc1-c1c(F)cccc1OC [Example 229, N-[4-(2-Fluoro-6-methoxy-phenyl)-pyridin-3-yl]-3-methanesulfonyl-N-(2-methoxy-ethyl)-5-trifluoromethyl-benzamide] | 27
Cc1ccccc1-c1ccncc1N(CC(F)F)C(=O)c1cc(C(F)(F)F)nc(C(F)(F)F)c1 [Example 157, N-(2,2-Difluoro-ethyl)-N-(4-o-tolyl-pyridin-3-yl)-2,6-bis-trifluoromethyl-isonicotinamide] | 88
CN(C(=O)c1cc(C(F)(F)F)cc(C(F)(F)F)c1)c1cnccc1-c1ccc(F)cc1F [Example 37, N-[4-(2,4-Difluoro-phenyl)-pyridin-3-yl]-N-methyl-3,5-bis-trifluoromethyl-benzamide] | 40
Cc1ccccc1-c1cc(N)ncc1N(C)C(=O)c1cc(C(F)(F)F)cc(C(F)(F)F)c1 [Example 16] | 184
COc1ncccc1-c1ccncc1N(CC(F)F)C(=O)c1cc(C(F)(F)F)nc(C(F)(F)F)c1 [Example 156, N-(2,2-Difluoro-ethyl)-N-(2-methoxy-[3,4′]bipyridinyl-3′-yl)-2,6-bis-trifluoromethyl-isonicotinamide] | 36
Cc1cc(-c2ccccc2OC2COC2)c(N(C)C(=O)c2cc(C(F)(F)F)cc(S(C)(=O)=O)c2)cn1 [Example 318, 3-Methanesulfonyl-N-methyl-N-{6-methyl-4-[2-(oxetan-3-yloxy)-phenyl]-pyridin-3-yl}-5-trifluoromethyl-benzamide] | 1110
CN(C(=O)c1cc(C(F)(F)F)cc(C(F)(F)F)c1)c1cnccc1-c1cccc(F)c1F [Example 40, N-[4-(2,3-Difluoro-phenyl)-pyridin-3-yl]-N-methyl-3,5-bis-trifluoromethyl-benzamide] | 107
COc1cc(F)ccc1-c1ccncc1N(CC#N)C(=O)c1cc(C(F)(F)F)cc(S(C)(=O)=O)c1 [Example 228, N-Cyanomethyl-N-[4-(4-fluoro-2-methoxy-phenyl)-pyridin-3-yl]-3-methanesulfonyl-5-trifluoromethyl-benzamide] | 57
Cc1ccccc1-c1ccncc1N(C)C(=O)c1cc(Cl)cc(OC(F)(F)F)c1 [Example 100, 3-Chloro-N-methyl-N-(4-o-tolyl-pyridin-3-yl)-5-trifluoromethoxy-benzamide] | 207
Cc1cn[nH]c1-c1ccncc1N(C)C(=O)c1cc(C(F)(F)F)cc(C(F)(F)F)c1 [Example 211, N-Methyl-N-[4-(4-methyl-2H-pyrazol-3-yl)-pyridin-3-yl]-3,5-bis-trifluoromethyl-benzamide] | 959
CNC(=O)CN(C(=O)c1cc(C(F)(F)F)cc(C(F)(F)F)c1)c1cnccc1-c1ccccc1Cl [Example 102, N-[4-(2-Chloro-phenyl)-pyridin-3-yl]-N-methylcarbamoylmethyl-3,5-bis-trifluoromethyl-benzamide] | 144
COc1cc(F)ccc1-c1ccncc1N(Cc1ncco1)C(=O)c1cc(C(F)(F)F)cc(S(C)(=O)=O)c1 [Example 22, N-[4-(4-Fluoro-2-methoxy-phenyl)-pyridin-3-yl]-3-methanesulfonyl-N-oxazol-2-ylmethyl-5-trifluoromethyl-benzamide] | 35
Cc1ccccc1-c1ccncc1N(C)C(=O)c1cc(C(F)(F)F)cc(C(F)(F)F)c1 [Example 1, N-Methyl-N-(4-o-tolyl-pyridin-3-yl)-3,5-bis-trifluoromethyl-benzamide] | 22
Cc1ccc(F)cc1-c1ccncc1N(C)C(=O)c1cc(C(F)(F)F)cc(S(C)(=O)=O)c1 [Example 276, N-[4-(5-Fluoro-2-methyl-phenyl)-pyridin-3-yl]-3-methanesulfonyl-N-methyl-5-trifluoromethyl-benzamide] | 162
Cc1ccccc1-c1ccncc1N(C)C(=O)c1cc(C(F)(F)F)nc(S(C)(=O)=O)c1 [Example 194, 2-Methanesulfonyl-N-methyl-N-(4-o-tolyl-pyridin-3-yl)-6-trifluoromethyl-isonicotinamide] | 258
COc1cc(F)ccc1-c1cc(C)ncc1N(CC(F)(F)F)C(=O)c1cc(C(F)(F)F)cc(S(C)(=O)=O)c1 [Example 307, N-[4-(4-Fluoro-2-methoxy-phenyl)-6-methyl-pyridin-3-yl]-3-methanesulfonyl-N-(2,2,2-trifluoro-ethyl)-5-trifluoromethyl-benzamide] | 300
Cc1ccccc1-c1cc(N2CCN(S(C)(=O)=O)CC2)ncc1N(C)C(=O)c1cc(C(F)(F)F)cc(C(F)(F)F)c1 [Example 17, N-[6-(4-Methanesulfonyl-piperazin-1-yl)-4-o-tolyl-pyridin-3-yl]-N-methyl-3,5-bis-trifluoromethyl-benzamide] | 336
COC(=O)CN(C(=O)c1cc(C(F)(F)F)cc(C(F)(F)F)c1)c1cnccc1-c1ccccc1Cl [Example 88, {(3,5-Bis-trifluoromethyl-benzoyl)-[4-(2-chloro-phenyl)-pyridin-3-yl]-amino}-acetic acid methyl ester] | 66
CS(=O)(=O)CCN(C(=O)c1cc(C(F)(F)F)cc(C(F)(F)F)c1)c1cnccc1-c1ccccc1Cl [Example 112, N-[4-(2-Chloro-phenyl)-pyridin-3-yl]-N-(2-methanesulfonyl-ethyl)-3,5-bis-trifluoromethyl-benzamide] | 237
